Measurements reported in PMC4878759 (PLoS ONE, 2016).

How the values were obtained:
ANO2 = biological target: T1, ANO2 (Mus musculus, UniProt Q8CFW1); assay: Apical membrane current in FRT-ANO2 cells; assay type: cell-based
T1 sequence (Q8CFW1 1-1002): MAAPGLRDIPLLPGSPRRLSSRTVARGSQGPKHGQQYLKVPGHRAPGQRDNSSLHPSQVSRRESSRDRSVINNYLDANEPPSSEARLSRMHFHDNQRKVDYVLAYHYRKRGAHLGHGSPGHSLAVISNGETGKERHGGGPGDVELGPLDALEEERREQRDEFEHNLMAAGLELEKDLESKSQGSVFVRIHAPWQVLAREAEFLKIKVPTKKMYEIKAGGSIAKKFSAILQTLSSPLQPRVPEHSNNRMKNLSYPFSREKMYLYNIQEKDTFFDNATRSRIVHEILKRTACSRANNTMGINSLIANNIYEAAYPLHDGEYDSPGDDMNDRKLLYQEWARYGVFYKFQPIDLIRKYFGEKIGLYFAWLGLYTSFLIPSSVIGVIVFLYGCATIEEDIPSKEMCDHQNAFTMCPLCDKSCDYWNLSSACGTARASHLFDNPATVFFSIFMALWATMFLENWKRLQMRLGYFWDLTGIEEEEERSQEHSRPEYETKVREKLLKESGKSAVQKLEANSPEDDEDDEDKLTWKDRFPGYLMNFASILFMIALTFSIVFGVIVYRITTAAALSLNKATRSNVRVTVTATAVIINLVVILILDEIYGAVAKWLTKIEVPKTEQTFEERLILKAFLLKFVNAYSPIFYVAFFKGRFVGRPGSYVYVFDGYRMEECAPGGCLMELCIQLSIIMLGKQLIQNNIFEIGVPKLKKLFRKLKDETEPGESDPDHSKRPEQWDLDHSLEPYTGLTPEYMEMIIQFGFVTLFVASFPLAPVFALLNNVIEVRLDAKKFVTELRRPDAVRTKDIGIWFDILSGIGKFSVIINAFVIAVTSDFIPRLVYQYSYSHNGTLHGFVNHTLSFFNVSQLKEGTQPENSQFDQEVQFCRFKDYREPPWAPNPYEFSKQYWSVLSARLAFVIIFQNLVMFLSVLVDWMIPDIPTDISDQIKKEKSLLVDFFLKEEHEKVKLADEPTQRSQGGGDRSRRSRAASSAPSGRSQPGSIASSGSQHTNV
Description: Snapwell inserts containing ANO1, ANO2 or CFTR expressing FRT cells, ENaC expressing T-84 cells or the human primary airway epithelial cells were mounted in Ussing chambers (Physiologic Instruments, San Diego, CA). To induce transcriptional ENaC induction, the polarized T84 cells were incubated with 2 mM sodium butyrate for 2 days. To increase the functional expression of ANO1, the human airway epithelial cells were treated with IL-4 (10 ng/mL) for 2 days. For T-84 and the human primary airway epithelial cells, the apical and basolateral bath were filled with HCO3^—buffered solution containing (in mM): 120 NaCl, 5 KCl, 1 MgCl2, 1 CaCl2, 10 D-glucose, 2.5 HEPES, and 25 NaHCO3 (pH 7.4). For FRT cells, the basolateral bath was filled with the HCO3^—buffered solution and the apical bath was filled with a half-Cl^- solution. In the half-Cl^- solution 65 mM NaCl in the HCO3^—buffered solution was replaced by Na-gluconate. […] ATP was applied to the apical bath solution to induce intracellular calcium increase. […] Apical membrane currents were measured with an EVC4000 Multi-Channel V/I Clamp (World Precision Instruments, Sarasota, FL) and PowerLab 4/35 (AD Instruments, Castle Hill, Australia). Data were analyzed using Labchart Pro 7 (AD Instruments). The sampling rate was 4 Hz.
ANO1 belongs to anoctamin gene family which contains ten members presenting eight-pass transmembrane segments with cytosolic N- and C-terminals. ANO2 shares a high level of amino acid homology to ANO1 (~60%) and, ANO1 and ANO2 are confirmed CaCCs. However, the roles of other family members (ANO3-ANO10) remain poorly understood and controversial. […] We investigated the effect of these inhibitors on ANO2-mediated apical membrane current in FRT-ANO2 cells.

mouse ANO2 = biological target: T2, mouse ANO2 (Mus musculus, UniProt Q8CFW1); assay: YFP quenching assay in FRT cells expressing ANO2; assay type: cell-based; conditions: up to 10 μM, 100 μM ATP
T2 sequence (Q8CFW1 1-1002): T1 sequence (Q8CFW1 1-1002)

Which results are given for COc1ccccc1C=NNC(=O)COc1ccc(Cl)cc1C [Ani9, 2-(4-chloro-2-methylphenoxy)-N-[(2-methoxyphenyl)methylideneamino]-acetamide]?
effect on ATP-induced ANO2 current (ANO2; 1 μM pretreatment): did not affect; block of ANO2 current (ANO2; 10 μM pretreatment): 10 ± 1.6%; inhibitory effect on ANO2 (ANO2; higher concentrations (3 and 10 μM)): relatively small inhibitory effect; effect on ANO2 activity (mouse ANO2): did not significantly affect
